Laboratory results from US10702534B2, “Compositions and methods relating to the radioprotective effects of apilimod” (priority 2017, dated 2020).

Test system: acutely irradiated mice
Experiment: Prevention of radiation-induced mortality in mice after 8.5 Gy total body irradiation (survival analysis)
Assay type: in vivo, C57B1/6 male mice
Description: Eighty-six (86) C57B1/6 male mice were randomized into 6 groups. Group 1 (n=6) served as the untreated control group (no apilimod dimesylate or radiation). Animals in Groups 2-6 (n=16/group) were exposed to an 8.5 Gy dose of total body irradiation on Day 0. Radiation was generated with a 160 kilovolt potential (18-ma) source at a focal distance of 25 cm, hardened with a 0.35 mm A1 filtration system. Irradiation targeted the total body at a rate of approximately 1.0 Gy/minute. The total radiation dose and dose rate was measured in real time with a Farmer-type ionization chamber and a Fluke 35040 ATD dosimeter. No anesthesia was used during irradiation. Animals were monitored for survival twice daily and those that lost greater than 30% of their total starting body weight were euthanized. Animals in Groups 2 through 6 were dosed with apilimod dimesylate or vehicle exactly 3 hrs prior to radiation on Day 0 via oral gavage (PO) or intraperitoneal injection (IP) as indicated in Table 1 below. All animals were given ad libitum access to acidified drinking (pH 2.8-3.0) water from Day 3 through study completion.

SMILES: Cc1cccc(/C=N/Nc2cc(N3CCOCC3)nc(OCCc3ccccn3)n2)c1 [apilimod dimesylate]
- percentage of surviving animals (60 mg/kg i.p. single dose 3 hrs prior to 8.5 Gy TBI, study to Day 31, vehicle 6.25%): 43.75%
- median time of survival (60 mg/kg i.p. single dose 3 hrs prior to 8.5 Gy TBI, vehicle 13.5 days): 21 days
- survival (survival analysis, in words) (180 mg/kg p.o. single dose 3 hrs prior to 8.5 Gy TBI, did not reach statistical significance): trend towards increased survival
- survival protection (survival analysis, in words) (delivered by intraperitoneal injection, 60 mg/kg, 3 hrs prior to 8.5 Gy TBI): significant survival protection
